From ChEMBL document CHEMBL1130893, “Inhibition of HIV integrase by novel nucleotides bearing tricyclic bases” (Bioorg Med Chem Lett, 1998)

How the values were obtained:
[1] = molecular target: T1, Human immunodeficiency virus type 1 integrase (Human immunodeficiency virus 1, UniProt Q7ZJM1); test: Inhibitory activity against HIV integrase in the strand transfer step
[2] = molecular target: T1, Human immunodeficiency virus type 1 integrase; test: Inhibitory activity against HIV integrase in the 3' processing step

T1 sequence (Q7ZJM1 whole entry): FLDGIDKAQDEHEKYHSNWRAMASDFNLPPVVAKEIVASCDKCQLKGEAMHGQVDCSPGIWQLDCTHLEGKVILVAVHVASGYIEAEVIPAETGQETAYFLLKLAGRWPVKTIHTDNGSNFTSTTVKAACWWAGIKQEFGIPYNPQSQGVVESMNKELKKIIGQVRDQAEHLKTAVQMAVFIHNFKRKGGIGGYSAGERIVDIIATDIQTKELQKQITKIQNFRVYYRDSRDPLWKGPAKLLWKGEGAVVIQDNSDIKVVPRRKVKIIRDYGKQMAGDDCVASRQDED

IC50 [1] [µM]	IC50 [2] [µM]	Structure (SMILES)
68	–	Nc1ncnc2cc3c(cc12)ncn3C1COC(COP(=O)(O)O)C1 (stereo not given)
550	750	Nc1ncnc2cc3c(cc12)ncn3C1CCC(COP(=O)(O)O)O1 (stereo not given)
53	75	Nc1ncnc2c1ccc1ncn(C3COC(COP(=O)(O)O)C3)c12 (stereo not given)
